Values quoted from earlier work, collected in patent US5925665A, “Imidazoline compounds” (Adir Et Compagnie, priority 1996, dated 1999).

Tested on: mice
Conditions: general statement on reference products

Row | SMILES | duration of immobility, known antidepressants
1 | CN(C)CCCN1c2ccccc2CCc2ccccc21 [imipramine] | decrease this duration of immobility
2 | CNCCCN1c2ccccc2CCc2ccccc21 [desipramine] | decrease this duration of immobility
